{"source": "patent US20090110671A1", "about": "“AGENT FOR ENHANCHING THE PRODUCTION OF COLLAGEN AND IT'S USE” (priority 2005, published 2009)", "key": {"NHDF cells [1]": {"test_system": "NHDF cells", "experiment": "Experiment 2: collagen sedimented over cell surface and released in supernatant of NHDF cells, α,α-trehalose or maltose with AA-2G", "assay_type": "cell-based, human", "experimental": "Influence of α,α-trehalose and maltose on collagen production using NHDF cells was examined by the following experiment: Test solutions were prepared by dissolving either AA-2G; hydrous crystalline α,α-trehalose, a reagent grade specimen, commercialized by Hayashibara Biochemical Laboratories Inc., Okayama, Japan; or hydrous crystalline maltose, a reagent grade specimen, commercialized by Hayashibara Biochemical Laboratories Inc., Okayama; Japan, in […] The methods for culturing NHDF cells and quantifying the collagen-production level of the cells were conducted similarly as in Experiment 1. The collagen level in each culture supernatant of NHDF cells was determined in such a manner of collecting the culture supernatant and quantifying the collagen released in the supernatant by using “Sircol Collagen Quantification Kit”. As a control, D-MEM medium containing 50 μM AA-2G was used. These control and test solutions were respectively experimented using three wells, followed by calculating a mean value for collagen-production levels in the wells. The results are in Table 2 where the values are expressed with relative values for either or both of the levels of collagen, that had sedimented over the cell surfaces or released in the supernatants, in terms of their collagen-production levels of NHDF cells, which had been cultured in D-MEM medium containing 50 μM AA-2G, being regarded as 100."}, "[2]": {"test_system": "NHDF cells (normal human dermal fibroblast cell)", "experiment": "Experiment 1: collagen production in NHDF cells (Sircol kit), α,α-trehalose with AA-2G", "assay_type": "cell-based", "settings": "D-MEM with 50 μM AA-2G, no α,α-trehalose; reference regarded as 100", "experimental": "Using “fibrocell NHDF”, a normal human dermal fibroblast cell, commercialized by Kurashiki Spinning Co., Ltd., Okayama, Japan (abbreviated as “NHDF cells”, hereinafter), experiment for studying the influence of α,α-trehalose on the collagen production by L-ascorbic acids was conducted based on the method described in Bioscience, Biotechnology, and Biochemistry, Vol. 68, No. 4, pp. 767-773, 2004. The method is outlined below: Test solutions were prepared by dissolving L-ascorbic acid 2-glucoside, a reagent grade specimen commercialized by Hayashibara Biochemical Laboratories Inc., Okayama, Japan (may be abbreviated as “AA-2G”, hereinafter), and α,α-trehalose, a reagent grade specimen commercialized by Hayashibara Biochemical Laboratories Inc., Okayama, Japan, in Dulbecco […] essential medium containing 10% (v/v) fetal calf serum and an antibiotic (abbreviated as “D-MEM”, hereinafter) to give a final concentration of 50 μM/ml of AA-2G and a final concentration of 7.5, 15 or 30 mg/ml of α,α-trehalose. NHDF cells, which had been successively cultured in D-MEM medium, were collected, re-suspended in a fresh preparation of D-MEM medium, inoculated to 96-well microplates at a cell concentration of 2.5×10^4 cells/200 μl/well, and cultured for 24 hours. Thereafter, the supernatants of the cultures were removed by sucking, and further cultured for five days after addition of any of the test solutions in a volume of 200 μl/well. As controls, the cells, which had been cultured for 24 hours, were further cultured for five days after addition of 200 μl/well of D-MEM medium, D-MEM medium supplemented with α,α-trehalose at a concentration of 30 mg/ml, or D-MEM medium supplemented with AA-2G at a concentration of 50 μM/ml. After completion of culturing, the supernatants of the cultures were removed by sucking, admixed with 50 μl/well of 1 M acetic acid solution containing 1 mg/ml of pepsin, and shaken for four hours to solubilize collagen adhered to the cell surfaces, followed by quantifying the content of collagen accumulated in the cells using “Sircol Collagen Quantification Kit”, commercialized by Biocolor Ltd. These control and test solutions were respectively experimented with three wells, followed by calculating a mean value for collagen-production levels in the wells. All the cultures of the NHDF cells were conducted in a 5% (v/v) CO2 incubator. The results are in Table 1 where the values are expressed with relative values in terms of the collagen-production level of NHDF cells, which had been cultured in D-MEM medium containing AA-2G, being regarded as 100."}, "NHDF cells [3]": {"test_system": "NHDF cells", "experiment": "Experiment 3: collagen production in NHDF cells, α,α-trehalose and saccharide derivatives with or without AA-2G", "assay_type": "cell-based, human", "experimental": "Based on the confirmation that α,α-trehalose has an action of enhancing the collagen production by L-ascorbic acid, it was experimented as follows to confirm whether saccharide derivatives of α,α-trehalose have such a similar action and effect. Test solutions were prepared by dissolving in D-MEM medium any one of AA-2G, hydrous crystalline α,α-trehalose, a reagent grade specimen with a purity of at least 98%, commercialized by Hayashibara Biochemical Laboratories Inc., Okayama, Japan; “HALLODEX”, a product name of a syrup of saccharide derivatives of α,α-trehalose, having a solid content of about 75% and containing, on a dry solid basis, about 53% of α-maltosyl α,α-trehalose and about 5% of other saccharide derivatives of α,α-trehalose in total, to give final concentrations of 50 μM of AA-2G and 15.0 mg/ml of saccharides. As a control, test solutions were prepared by dissolving in D-MEM medium either of the above hydrous crystalline α,α-trehalose, α-maltosyl α,α-trehalose, or syrup of saccharide derivatives of α,α-trehalose to give a final concentration of 15.0 mg/ml. The medium admixed with the syrup containing saccharide derivatives of α,α-trehalose was adjusted to give a concentration of 15.0 mg/ml of saccharide derivatives of α,α-trehalose. The culture of NHDF cells and the quantification of collagen-production level thereof were carried out similarly as in Experiment 1. The results are in Table 3, where the values are expressed with relative values in terms of the collagen production level of NHDF cells, being regarded as 100, when cultured in D-MEM medium containing AA-2G."}, "NHDF cells [4]": {"test_system": "NHDF cells", "experiment": "Experiment 4: collagen production in NHDF cells, saccharides combined with hyaluronic acid and/or chondroitin sulfate", "assay_type": "cell-based, human", "excerpt": "Influence of α,α-trehalose or a saccharide derivative thereof, or a combination use of any of these saccharides and hyaluronic acid and/or chondroitin sulfate on the collagen production by L-ascorbic acids was examined as follows. AA-2G and any one of hydrous crystalline α,α-trehalose, a reagent grade specimen commercialized by Hayashibara Biochemical Laboratories Inc., Okayama, Japan; α-maltosyl α,α-trehalose with a purity of at least 98% commercialized by Hayashibara Biochemical Laboratories Inc., Okayama, Japan; and “HALLODEX”, a product name of a syrup of saccharide derivatives of α,α-trehalose were dissolved in D-MEM medium to give final concentrations of 50 μM of AA-2G and 15.0 mg/ml of saccharides. Further, as another test solutions, those, which had been prepared similarly as in the above, were admixed with any one of hyaluronic acid, chondroitin sulfate, and a combination thereof to give respective concentrations of 1 mg/ml, 1 mg/ml, and 0.5 mg/ml of hyaluronic acid and chondroitin sulfate each. The medium supplemented with a syrup containing about 59%, d.s.b., of saccharide derivatives of α,α-trehalose was prepared to give a concentration of 15.0 mg/ml of the saccharide derivatives of α,α-trehalose contained in the syrup. The culture of NHDF cells and the quantification of collagen-production level thereof were carried out similarly as in Experiment 1. The results are in Table 4 where the values are expressed with relative values in terms of the collagen-production level of NHDF cells, being regarded as 100, when cultured in D-MEM medium containing AA-2G."}, "[5]": {"test_system": "skin wrinkles/finely-wrinkles and flabby skin", "experiment": "Experiment 5: self-evaluation of lotions on skin wrinkles/finely-wrinkles and flabby skin, four months", "assay_type": "in vivo, human", "settings": "lotion, no saccharide, 3 times a day, 4 months", "experimental": "The following experiment was conducted to examine the influence of α,α-trehalose or saccharide derivatives thereof and hyaluronic acid and/or chondroitin sulfate on the skin. Since there exists a relatively constant amount of L-ascorbic acid in vivo, the collagen production by L-ascorbic acid proceeds constantly. Based on the following basic formulation for lotion and the combination and composition in Table 5, 100 parts by weights of a lotion was prepared by adding to the basic formulation sodium hyaluronate, chondroitin sulfate, hydrous crystalline α,α-trehalose, a cosmetic grade specimen commercialized by Hayashibara Biochemical Laboratories Inc., Okayama, Japan, and “[…]”, a product name of a syrup having a solid content of about 75% and containing, on a dry solid basis, about 53% by weight of α-maltosyl α,α-trehalose and about 5% by weight of other saccharide derivatives of α,α-trehalose, and an adequate amount of refined water. In Table 5, the respective amounts of the added saccharide are expressed on a dry solid basis. The syrup containing saccharide derivatives of α,α-trehalose was added in an amount of the saccharide derivatives as shown in Table 5. Eleven women as volunteers, who had been suffering from skin wrinkles/finely-wrinkles or flabby skin, were allowed to wash their faces with any of the lotions having compositions in Table 5 three times a day for four months and then allowed to evaluate themselves about their face-skin conditions by comparing with those before use of the lotions."}, "[6]": {"settings": "saccharide 0.2 mg/ml + 50 μM AA-2G, relative to AA-2G = 100"}, "[7]": {"settings": "saccharide 0.6 mg/ml + 50 μM AA-2G, relative to AA-2G = 100"}, "[8]": {"settings": "saccharide 1.7 mg/ml + 50 μM AA-2G, relative to AA-2G = 100"}, "[9]": {"settings": "saccharide 5.0 mg/ml + 50 μM AA-2G, relative to AA-2G = 100"}, "[10]": {"settings": "saccharide 15.0 mg/ml + 50 μM AA-2G, relative to AA-2G = 100"}, "[11]": {"settings": "D-MEM containing 50 μM AA-2G alone, reference regarded as 100"}, "[12]": {"settings": "chondroitin sulfate 0.5 part by weight"}, "[13]": {"settings": "sodium hyaluronate 0.5 part by weight"}}}
{"compound": "OC[C@H]1O[C@H](O[C@H]2[C@H](O)[C@@H](O)C(O)O[C@@H]2CO)[C@H](O)[C@@H](O)[C@@H]1O", "note": "(mixture of isomers) [maltose]", "values": [{"measurement": "Collagen-production level, In supernatant", "setting": "NHDF cells [1]; [6]", "value": 101}, {"measurement": "Collagen-production level, Total", "setting": "NHDF cells [1]; [6]", "value": 99}, {"measurement": "Collagen-production level, In supernatant", "setting": "NHDF cells [1]; [7]", "value": 134}, {"measurement": "Collagen-production level, Total", "setting": "NHDF cells [1]; [7]", "value": 92}, {"measurement": "Collagen-production level, In supernatant", "setting": "NHDF cells [1]; [8]", "value": 288}, {"measurement": "Collagen-production level, Total", "setting": "NHDF cells [1]; [8]", "value": 97}, {"measurement": "Collagen-production level, In supernatant", "setting": "NHDF cells [1]; [9]", "value": 256}, {"measurement": "Collagen-production level, Total", "setting": "NHDF cells [1]; [9]", "value": 61}, {"measurement": "Collagen-production level, In supernatant", "setting": "NHDF cells [1]; [10]", "value": 228}, {"measurement": "Collagen-production level, Total", "setting": "NHDF cells [1]; [10]", "value": 44}]}
{"compound": "O=C1O[C@H]([C@@H](O)CO)C(O)=C1O[C@H]1O[C@H](CO)[C@@H](O)[C@H](O)[C@H]1O", "note": "[AA-2G, L-ascorbic acid 2-glucoside, reference compound]", "values": [{"measurement": "Collagen-production level", "setting": "[2]", "value": 100}, {"measurement": "Collagen-production level, In supernatant", "setting": "NHDF cells [1]; [11]", "value": 100}, {"measurement": "Collagen-production level, Total", "setting": "NHDF cells [1]; [11]", "value": 100}, {"measurement": "Collagen-production level", "setting": "NHDF cells [3]; no saccharide, 50 μM AA-2G added, reference regarded as 100", "value": 100}, {"measurement": "Collagen-production level", "setting": "NHDF cells [4]; no saccharide, 50 μM AA-2G alone, reference regarded as 100", "value": 100}]}
{"compound": "OC[C@H]1O[C@H](O[C@H]2O[C@H](CO)[C@@H](O[C@H]3O[C@H](CO)[C@@H](O[C@H]4O[C@H](CO)[C@@H](O)[C@H](O)[C@H]4O)[C@H](O)[C@H]3O)[C@H](O)[C@H]2O)[C@H](O)[C@@H](O)[C@@H]1O", "note": "[α-Maltosyl α,α-trehalose, α-maltosyl α,α-trehalose]", "values": [{"measurement": "Collagen-production level", "setting": "NHDF cells [3]; [10]", "value": 182}, {"measurement": "Collagen-production level", "setting": "NHDF cells [3]; saccharide 15.0 mg/ml, AA-2G not added, relative to AA-2G = 100", "value": 39}, {"measurement": "Collagen-production level", "setting": "NHDF cells [4]; saccharide 15.0 mg/ml + 50 μM AA-2G", "value": 158}, {"measurement": "Collagen-production level", "setting": "NHDF cells [4]; saccharide 15.0 mg/ml + 50 μM AA-2G + chondroitin sulfate 1 mg/ml", "value": 188}, {"measurement": "Collagen-production level", "setting": "NHDF cells [4]; saccharide 15.0 mg/ml + 50 μM AA-2G + hyaluronate and chondroitin sulfate 0.5 mg/ml each", "value": 276}, {"measurement": "Collagen-production level", "setting": "NHDF cells [4]; saccharide 15.0 mg/ml + 50 μM AA-2G + sodium hyaluronate 1 mg/ml", "value": 199}, {"measurement": "Collagen-production level", "setting": "NHDF cells [4]; saccharide 15.0 mg/ml alone, no AA-2G, no hyaluronate, no chondroitin sulfate", "value": 39}]}
{"compound": "chondroitin sulfate", "values": [{"measurement": "Collagen-production level", "setting": "NHDF cells [4]; no saccharide, 50 μM AA-2G + chondroitin sulfate 1 mg/ml", "value": 97}, {"measurement": "Evaluation A (remarkably efficacious)", "setting": "[5]; [12]", "value": "0 number of volunteers"}, {"measurement": "Evaluation B (efficacious)", "setting": "[5]; [12]", "value": "0 number of volunteers"}, {"measurement": "Evaluation C (slightly efficacious)", "setting": "[5]; [12]", "value": "1 number of volunteers"}, {"measurement": "Evaluation D (inefficacious)", "setting": "[5]; [12]", "value": "10 number of volunteers"}]}
{"compound": "sodium hyaluronate", "values": [{"measurement": "Collagen-production level", "setting": "NHDF cells [4]; no saccharide, 50 μM AA-2G + sodium hyaluronate 1 mg/ml", "value": 98}, {"measurement": "Evaluation A (remarkably efficacious)", "setting": "[5]; [13]", "value": "0 number of volunteers"}, {"measurement": "Evaluation B (efficacious)", "setting": "[5]; [13]", "value": "0 number of volunteers"}, {"measurement": "Evaluation C (slightly efficacious)", "setting": "[5]; [13]", "value": "2 number of volunteers"}, {"measurement": "Evaluation D (inefficacious)", "setting": "[5]; [13]", "value": "9 number of volunteers"}]}
